The values that follow come from ChEMBL document CHEMBL2375325, “Anti-neuroinflammatory properties of synthetic cryptolepine in human neuroblastoma cells: possible involvement of NF-κB and p38 MAPK inhibition” (Eur J Med Chem, 2013).

Calls of active or inactive are those of the source. No cut-off for these calls is given here.

Series [1] deals with SK-N-SH. The experiment in a line: Inhibition of microsomal PGES-1 gene expression in IL1beta-stimulated human SK-N-SH cells at 10 to 20 uM preincubated for 30 mins prior to IL1beta-stimulation measured after 4 hrs by qPCR analysis. The class given is functional, cell-based.
The test system of series [2] is SK-N-SH. Kind of series: Inhibition of microsomal PGES-1 gene expression in IL1beta-stimulated human SK-N-SH cells at 2.5 uM preincubated for 30 mins prior to IL1beta-stimulation measured after 4 hrs by qPCR analysis. The class given is functional, cell-based.
In series [3] the test system is SK-N-SH. The experiment in a line: Inhibition of COX2 gene expression in IL1beta-stimulated human SK-N-SH cells at 10 to 20 uM preincubated for 30 mins prior to IL1beta-stimulation measured after 4 hrs by qPCR analysis. The class given is functional, cell-based.
The subject of series [4] is SK-N-SH. The experiment in a line: Inhibition of IL1beta-induced IkappaB phosphorylation in human SK-N-SH cells at 2.5 to 20 uM after 15 mins by ELISA. The format is cell-based.
Series [5] deals with SK-N-SH. Kind of series: Inhibition of microsomal PGES-1 gene expression in IL1beta-stimulated human SK-N-SH cells at 5 uM preincubated for 30 mins prior to IL1beta-stimulation measured after 4 hrs by qPCR analysis. The class given is functional, cell-based.
The test system of series [6] is SK-N-SH. Kind of series: Inhibition of COX2 protein expression in IL1beta-stimulated human SK-N-SH cells at 5 to 20 uM after 24 hrs by Western blotting analysis. The format is functional, cell-based.
Series [7] deals with SK-N-SH. The experiment in a line: Antiinflammatory activity against human SK-N-SH cells assessed as inhibition of IL1beta-induced PGE2 production preincubated for 30 mins prior to IL1beta-stimulation measured after 24 hrs by enzyme immunoassay. The format is functional, cell-based.
The test system of series [8] is SK-N-SH. Kind of series: Inhibition of COX2 protein expression in IL1beta-stimulated human SK-N-SH cells at 2.5 uM after 24 hrs by Western blotting analysis relative to IL1beta-treated control. The format is functional, cell-based.
For series [9], the system named is SK-N-SH. The experiment in a line: Cytotoxicity against human SK-N-SH cells after 24 hrs by ATP assay. The format is cell-based.
The subject of series [10] is SK-N-SH. Kind of series: Antiinflammatory activity against human SK-N-SH cells assessed as inhibition of IL1beta-induced TNFalpha production at 2.5 to 20 uM preincubated for 30 mins prior to IL1beta-stimulation measured after 24 hrs by ELISA. The class given is functional, cell-based.
Series [11] concerns SK-N-SH. The experiment in a line: Inhibition of microsomal PGES-1 protein expression in IL1beta-stimulated human SK-N-SH cells at 5 uM after 24 hrs by Western blotting analysis. The format is functional, cell-based.
Series [12] deals with T1, MAP kinase p38 (Homo sapiens) (UniProt O15264+Q15759+Q16539+P53778). The experiment in a line: Inhibition of IL1beta-induced p38 MAPK phosphorylation in human SK-N-SH cells at 10 to 20 uM preincubated for 30 mins prior to IL1beta-stimulation measured after 1 hr by Western blotting analysis. The format is cell-based.
The target of series [13] is T1, MAP kinase p38 (Homo sapiens). The experiment in a line: Inhibition of p38 MAPK in human SK-N-SH cells assessed as inhibition of IL1beta-induced MAPKAPK2 phosphorylation preincubated for 30 mins prior to IL1beta-stimulation measured after 1 hr by Western blotting analysis. The class given is cell-based.
The test system of series [14] is SK-N-SH. The experiment in a line: Inhibition of microsomal PGES-1 protein expression in IL1beta-stimulated human SK-N-SH cells at 10 to 20 uM after 24 hrs by Western blotting analysis. The format is functional, cell-based.
Series [15] deals with Transcription factor p65 (Homo sapiens) (UniProt Q04206). Kind of series: Inhibition of IL1beta-induced NFkappaB p65 nuclear translocation in human SK-N-SH cells after 15 mins by ELISA. The class given is cell-based.
Transcription factor p65 (Homo sapiens), sequence (Q04206 whole entry): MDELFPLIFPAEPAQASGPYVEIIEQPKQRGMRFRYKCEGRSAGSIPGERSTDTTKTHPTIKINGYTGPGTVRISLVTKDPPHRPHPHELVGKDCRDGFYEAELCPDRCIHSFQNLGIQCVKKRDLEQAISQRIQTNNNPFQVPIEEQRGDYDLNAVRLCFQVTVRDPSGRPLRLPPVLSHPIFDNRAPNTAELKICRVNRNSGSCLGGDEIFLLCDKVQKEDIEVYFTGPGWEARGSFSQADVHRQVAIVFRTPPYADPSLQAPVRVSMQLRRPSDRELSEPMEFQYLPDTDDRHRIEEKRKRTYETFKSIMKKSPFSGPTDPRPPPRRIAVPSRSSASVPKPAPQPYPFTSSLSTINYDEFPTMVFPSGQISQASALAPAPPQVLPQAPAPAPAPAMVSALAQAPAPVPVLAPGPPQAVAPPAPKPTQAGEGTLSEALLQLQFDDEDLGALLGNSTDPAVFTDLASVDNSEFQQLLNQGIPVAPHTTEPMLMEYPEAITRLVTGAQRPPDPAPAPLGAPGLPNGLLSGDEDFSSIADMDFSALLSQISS
For series [16], the system named is SK-N-SH. Kind of series: Antiinflammatory activity against human SK-N-SH cells assessed as inhibition of IL1beta-induced IL6 production at 2.5 to 20 uM preincubated for 30 mins prior to IL1beta-stimulation measured after 24 hrs by ELISA. The format is functional, cell-based.
Series [17] has as its system SK-N-SH. Kind of series: Inhibition of microsomal PGES-1 protein expression in IL1beta-stimulated human SK-N-SH cells at 2.5 uM after 24 hrs by Western blotting analysis. The format is functional, cell-based.

Regarding `C[n+]1c2ccccc2cc2[n-]c3ccccc3c21.Cl` [CRYPTOLEPINE HYDROCHLORIDE], the inhibition entry (in the series with SK-N-SH [1]; in the series on SK-N-SH [3]; in the series on SK-N-SH [5]; in the series on SK-N-SH [6]; in series [12]; in the series with SK-N-SH [14]) was “Active” in each case. Further, the inhibition entry with SK-N-SH [2], in the series with SK-N-SH [4], in the series with SK-N-SH [8], in the series on SK-N-SH [11] and with SK-N-SH [17] was “inactive” throughout. For the same compound, the Activity entry in the series with SK-N-SH [7] was “Dose-dependent effect”; in the series on SK-N-SH [9], “Non-toxic”. Moreover, the result in the series with SK-N-SH [10] and with SK-N-SH [16] was Active. For the same compound, the inhibition result in series [13] and in series [15] was “Dose-dependent effect” in each case.
